Assay results taken from ChEMBL document CHEMBL2401728, “An unexpected Dimroth rearrangement leading to annelated thieno[3,2-d][1,2,3]triazolo[1,5-a]pyrimidines with potent antitumor activity” (Eur J Med Chem, 2013).

What was measured:
[1] = test system: K562; experiment: Cytotoxicity against human K562 cells assessed as cellular growth at 1 uM after 48 hrs by SRB assay relative to control; format: functional
[2] = test system: 786-0; experiment: Cytotoxicity against human 786-0 cells assessed as cellular growth at 10 uM after 48 hrs by SRB assay relative to control; format: functional
[3] = test system: SK-MEL-5; experiment: Cytotoxicity against human SK-MEL-5 cells assessed as cellular growth at 100 uM after 48 hrs by SRB assay relative to control; format: functional
[4] = Cytotoxicity against human EKVX cells assessed as cellular growth at 10 uM after 48 hrs by SRB assay relative to control; format: functional
[5] = test system: UO-31; experiment: Cytotoxicity against human UO31 cells after 48 hrs by SRB assay; format: functional; settings: UO-31, 48 h
[6] = test system: UACC-62; experiment: Cytotoxicity against human UACC62 cells after 48 hrs by SRB assay; format: functional; settings: UACC-62, 48 h
[7] = test system: SW-620; experiment: Cytotoxicity against human SW620 cells assessed as cellular growth at 1 uM after 48 hrs by SRB assay relative to control; format: functional
[8] = test system: NCI-H23; experiment: Cytotoxicity against human NCI-H23 cells after 48 hrs by SRB assay; format: functional; settings: NCI-H23, 48 h
[9] = test system: HCC 2998; experiment: Cytotoxicity against human HCC2998 cells assessed as cellular growth at 0.01 uM after 48 hrs by SRB assay relative to control; format: functional
[10] = test system: NCI-H522; experiment: Cytotoxicity against human NCI-H522 cells after 48 hrs by SRB assay; format: functional; settings: NCI-H522, 48 h
[11] = test system: RPMI-8226; experiment: Cytotoxicity against human RPMI8226 cells assessed as cellular growth at 1 uM after 48 hrs by SRB assay relative to control; format: functional
[12] = test system: ACHN; experiment: Cytotoxicity against human ACHN cells after 48 hrs by SRB assay; format: functional
[13] = test system: OVCAR-8; experiment: Cytotoxicity against human OVCAR8 cells assessed as cellular growth at 0.1 uM after 48 hrs by SRB assay relative to control; format: functional
[14] = test system: SF-268; experiment: Cytotoxicity against human SF268 cells after 48 hrs by SRB assay; format: functional; settings: SF-268, 48 h
[15] = test system: T47D; experiment: Cytotoxicity against human T47D cells assessed as cellular growth at 0.1 uM after 48 hrs by SRB assay relative to control; format: functional
[16] = Cytotoxicity against human NCI-ADR-RES cells assessed as cellular growth at 100 uM after 48 hrs by SRB assay relative to control; format: functional
[17] = test system: RPMI-8226; experiment: Cytotoxicity against human RPMI8226 cells assessed as cellular growth at 0.01 uM after 48 hrs by SRB assay relative to control; format: functional
[18] = test system: SNB-75; experiment: Cytotoxicity against human SNB75 cells assessed as cellular growth at 0.01 uM after 48 hrs by SRB assay relative to control; format: functional
[19] = test system: BT-549; experiment: Cytotoxicity against human BT549 cells assessed as cellular growth at 1 uM after 48 hrs by SRB assay relative to control; format: functional
[20] = test system: HL-60(TB); experiment: Cytotoxicity against human HL-60(TB) cells assessed as cellular growth at 1 uM after 48 hrs by SRB assay relative to control; format: functional
[21] = test system: K562; experiment: Cytotoxicity against human K562 cells assessed as cellular growth at 0.01 uM after 48 hrs by SRB assay relative to control; format: functional
[22] = test system: ACHN; experiment: Cytotoxicity against human ACHN cells assessed as cellular growth at 100 uM after 48 hrs by SRB assay relative to control; format: functional
[23] = test system: Malme-3M; experiment: Cytotoxicity against human MALME-3M cells after 48 hrs by SRB assay; format: functional
[24] = test system: MOLT-4; experiment: Cytotoxicity against human MOLT4 cells assessed as cellular growth at 0.01 uM after 48 hrs by SRB assay relative to control; format: functional
[25] = test system: MDA-MB-231; experiment: Cytotoxicity against human MDA-MB-231 cells assessed as cellular growth at 0.01 uM after 48 hrs by SRB assay relative to control; format: functional
[26] = test system: NCI-H322M; experiment: Cytotoxicity against human NCI-H322M cells assessed as cellular growth at 1 uM after 48 hrs by SRB assay relative to control; format: functional
[27] = test system: HCC 2998; experiment: Cytotoxicity against human HCC2998 cells assessed as cellular growth at 100 uM after 48 hrs by SRB assay relative to control; format: functional
[28] = test system: NCI-H226; experiment: Cytotoxicity against human NCI-H226 cells assessed as cellular growth at 1 uM after 48 hrs by SRB assay relative to control; format: functional
[29] = test system: HT-29; experiment: Cytotoxicity against human HT-29 cells assessed as cellular growth at 1 uM after 48 hrs by SRB assay relative to control; format: functional
[30] = test system: SK-OV-3; experiment: Cytotoxicity against human SKOV3 cells assessed as cellular growth at 10 uM after 48 hrs by SRB assay relative to control; format: functional
[31] = test system: PC-3; experiment: Cytotoxicity against human PC3 cells assessed as cellular growth at 0.01 uM after 48 hrs by SRB assay relative to control; format: functional
[32] = test system: PC-3; experiment: Cytotoxicity against human PC3 cells after 48 hrs by SRB assay; format: functional; settings: PC-3, 48 h
[33] = Cytotoxicity against human breast cancer cells assessed as cellular growth at 10 uM after 48 hrs by SRB assay relative to control; format: functional, Cancer cell lines
[34] = Cytotoxicity against human non-small cell lung cancer cells assessed as cellular growth at 10 uM after 48 hrs by SRB assay relative to control; format: functional, Cancer cell lines
[35] = Cytotoxicity against human renal cancer cells assessed as cellular growth at 10 uM after 48 hrs by SRB assay relative to control; format: functional, Cancer cell lines
[36] = Cytotoxicity against human prostate cancer cells assessed as cellular growth at 10 uM after 48 hrs by SRB assay relative to control; format: functional, Cancer cell lines
[37] = read-out: LC50 (the source's name)
[38] = read-out: pLC50 (the source's name) (converted)

## CN1CCN(CCCn2c3c(sc4ncccc43)c(=O)n3nnc(-c4ccccc4)c23)CC1
[1]
  Activity: 86%
[2]
  Activity: -84%
[3]
  Activity: -96%
[4]
  Activity: -43%
[5]; read-out: GI50
  GI50: 1.03 µM
[5]; [37]
  CC50: 5.94 µM
[5]; read-out: TGI
  TGI: 2.47 µM
[5]; read-out: pGI50 (converted)
  GI50: 1.02 µM
[5]; [38]
  CC50: 5.89 µM
[5]; read-out: pTGI (converted)
  TGI: 2.45 µM
[6]; read-out: GI50
  GI50: 16.6 µM
[6]; [37]
  CC50: 71 µM
[6]; read-out: TGI
  TGI: 34.3 µM
[6]; read-out: pGI50 (converted)
  GI50: 16.6 µM
[6]; [38]
  CC50: 70.8 µM
[6]; read-out: pTGI (converted)
  TGI: 34.7 µM
[7]
  Activity: 83%
[8]; read-out: GI50
  GI50: 2.14 µM
[8]; [37]
  CC50: 33.7 µM
[8]; read-out: TGI
  TGI: 5.07 µM
[8]; read-out: pGI50 (converted)
  GI50: 2.14 µM
[8]; [38]
  CC50: 33.9 µM
[8]; read-out: pTGI (converted)
  TGI: 5.13 µM
[9]
  Activity: 104%
[10]; read-out: GI50
  GI50: 1.92 µM
[10]; read-out: TGI
  TGI: 3.7 µM
[10]; read-out: pGI50 (converted)
  GI50: 1.91 µM
[10]; read-out: pTGI (converted)
  TGI: 3.72 µM
[11]
  Activity: 84%
[12]; read-out: GI50
  GI50: 1.63 µM
[12]; [37]
  CC50: 6.79 µM
[12]; read-out: TGI
  TGI: 3.32 µM
[12]; read-out: pGI50 (converted)
  GI50: 1.62 µM
[12]; [38]
  CC50: 6.76 µM
[12]; read-out: pTGI (converted)
  TGI: 3.31 µM
[13]
  Activity: 94%
[14]; read-out: GI50
  GI50: 1.61 µM
[14]; [37]
  CC50: 6.81 µM
[14]; read-out: TGI
  TGI: 3.31 µM
[14]; read-out: pGI50 (converted)
  GI50: 1.62 µM
[14]; [38]
  CC50: 6.76 µM
[14]; read-out: pTGI (converted)
  TGI: 3.31 µM
[15]
  Activity: 100%
[16]
  Activity: -62%
[17]
  Activity: 110%
[18]
  Activity: 76%
[19]
  Activity: 97%
[20]
  Activity: 89%
[21]
  Activity: 95%
[22]
  Activity: -80%
[23]; read-out: GI50
  GI50: 1.97 µM
[23]; [37]
  CC50: 6.72 µM
[23]; read-out: TGI
  TGI: 3.64 µM
[23]; read-out: pGI50 (converted)
  GI50: 1.95 µM
[23]; [38]
  CC50: 6.76 µM
[23]; read-out: pTGI (converted)
  TGI: 3.63 µM
[24]
  Activity: 99%
[25]
  Activity: 100%
[26]
  Activity: 90%
[27]
  Activity: -76%
[28]
  Activity: 85%

## O=C(CCCn1c2c(sc3ccccc32)c(=O)n2nnc(-c3ccccc3)c12)NCCc1c[nH]cn1
[1]
  Activity: 1%
[2]
  Activity: -89%
[3]
  Activity: -100%
[4]
  Activity: 6%
[5]; read-out: GI50
  GI50: 1.3 µM
[5]; [37]
  CC50: 5.22 µM
[5]; read-out: TGI
  TGI: 2.61 µM
[5]; read-out: pGI50 (converted)
  GI50: 1.29 µM
[5]; [38]
  CC50: 5.25 µM
[5]; read-out: pTGI (converted)
  TGI: 2.63 µM
[6]; read-out: GI50
  GI50: 1.81 µM
[6]; [37]
  CC50: 7.01 µM
[6]; read-out: TGI
  TGI: 3.56 µM
[6]; read-out: pGI50 (converted)
  GI50: 1.82 µM
[6]; [38]
  CC50: 7.08 µM
[6]; read-out: pTGI (converted)
  TGI: 3.55 µM
[8]; read-out: GI50
  GI50: 1.34 µM
[8]; read-out: TGI
  TGI: 3.52 µM
[8]; read-out: pGI50 (converted)
  GI50: 1.35 µM
[8]; read-out: pTGI (converted)
  TGI: 3.55 µM
[29]
  Activity: 43%
[10]; read-out: GI50
  GI50: 0.0435 µM
[10]; [37]
  CC50: > 100 µM
[10]; read-out: TGI
  TGI: 3.11 µM
[10]; read-out: pGI50 (converted)
  GI50: 0.0437 µM
[10]; read-out: pTGI (converted)
  TGI: 3.09 µM
[12]; read-out: GI50
  GI50: 1.58 µM
[12]; [37]
  CC50: 6.26 µM
[12]; read-out: TGI
  TGI: 3.14 µM
[12]; read-out: pGI50 (converted)
  GI50: 1.58 µM
[12]; [38]
  CC50: 6.31 µM
[12]; read-out: pTGI (converted)
  TGI: 3.16 µM
[13]
  Activity: 33%
[14]; read-out: GI50
  GI50: 1.54 µM
[14]; [37]
  CC50: 6.7 µM
[14]; read-out: TGI
  TGI: 3.21 µM
[14]; read-out: pGI50 (converted)
  GI50: 1.55 µM
[14]; [38]
  CC50: 6.76 µM
[14]; read-out: pTGI (converted)
  TGI: 3.24 µM
[15]
  Activity: 55%
[16]
  Activity: 32%
[18]
  Activity: 103%
[19]
  Activity: 100%
[20]
  Activity: 29%
[21]
  Activity: 65%
[22]
  Activity: -100%
[23]; read-out: GI50
  GI50: 1.58 µM
[23]; [37]
  CC50: 6.8 µM
[23]; read-out: TGI
  TGI: 3.28 µM
[23]; read-out: pGI50 (converted)
  GI50: 1.58 µM
[23]; [38]
  CC50: 6.76 µM
[23]; read-out: pTGI (converted)
  TGI: 3.31 µM
[30]
  Activity: -6%
[31]
  Activity: 86%
[25]
  Activity: 115%
[26]
  Activity: 90%
[28]
  Activity: 101%
[32]; read-out: GI50
  GI50: 0.0603 µM
[32]; read-out: LC50
  LC50: 7.32 µM
[32]; read-out: TGI
  TGI: 2.21 µM
[32]; read-out: pGI50 (converted)
  GI50: 0.0603 µM
[32]; read-out: pLC50 (converted)
  LC50: 7.24 µM
[32]; read-out: pTGI (converted)
  TGI: 2.19 µM

## O=C(O)CCCn1c2c(sc3ccccc32)c(=O)n2nnc(-c3ccccc3)c12
[33]
  Activity: 79%
[34]
  Activity: 85%
[30]
  Activity: 90.82%
[35]
  Activity: 75%
[36]
  Activity: 92%
